# Experimental data: EP2508526A1, “Spiroalkene carboxamide derivatives and their use as chemokine receptor modulators” (Ares Trading SA, priority 2011, dated 2012)
# Columns and labels:
# [1] = target: T1, hCCR2b (Homo sapiens, UniProt P41597); experiment: CCR2 binding assay ([125I]MCP-1, SPA, CHO cell membranes); design: expressed in transfected cells; host or cells: CHO cells (membrane preparation); conditions: membranes from CHO cells expressing hCCR2b, 50 pM [125I]MCP-1; read-out: Binding hCCR2 (Ki)
# T1 sequence (P41597 1-360 isoform P41597-2): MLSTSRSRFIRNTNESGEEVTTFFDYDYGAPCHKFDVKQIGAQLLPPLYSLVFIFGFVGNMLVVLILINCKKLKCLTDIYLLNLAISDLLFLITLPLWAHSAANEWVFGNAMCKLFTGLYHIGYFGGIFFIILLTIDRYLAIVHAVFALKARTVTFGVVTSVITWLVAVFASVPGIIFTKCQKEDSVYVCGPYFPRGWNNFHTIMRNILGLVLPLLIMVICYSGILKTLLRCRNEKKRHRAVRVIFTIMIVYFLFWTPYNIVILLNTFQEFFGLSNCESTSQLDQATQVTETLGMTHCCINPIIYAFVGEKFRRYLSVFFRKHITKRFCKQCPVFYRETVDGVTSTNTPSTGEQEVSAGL
# Summary of the method: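 CHO membranes expressing hCCR2b (1–5 µg/well) with 50 pM [125I]MCP-1 and WGA SPA beads in 50 mM HEPES pH 7.4, 5 mM MgCl2, 1 mM CaCl2, 0.1% BSA, 1% DMSO; 90 min RT with agitation. Bound counts on scintillation counter; nonspecific defined by 1000-fold excess unlabeled compound.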
# [2] = target: T1, hCCR2b; experiment: Chemotaxis of L1.2-hCCR2b cells towards MCP-1 P8A; format: cell-based; design: expressed in transfected cells; host or cells: L1.2 cells (murine pre-B cell line); conditions: MCP-1 P8A at EC80, 4-hours incubation
# Text: L1.2 cells, a murine pre-LB cellline, were transfected with the human CCR2b receptor for use in the transmigration of L1.2 hCCR2b on the chemotaxis system: ChemotX® provided by Neuroprobes (8µm pore size). Monocyte Chemoattractant Protein-1 (MCP-1) stimulation leads to activate the CCR2 receptor and inititates a cascade of events including chemotaxis. MCP-1 ligand will be replaced by MCP-1 P8A protein with genetic modifications to prevent the oligomerization of the protein. L1.2-hCCR2b are incubated in white RPMI 1640, 5% v/v Heat inactivated FCS, 1% v/v penicillin-streptomycin supplemented with 5 mM Butyrate overnight to enhance receptor expression level at the cell surface. L1.2-hCCR2b cells and compounds in DMSO (1% final) are preincubated 15 min in chemotaxis medium and placed in the Upper Chamber of the chemotaxis system. The MCP-1 P8A initially present at its EC80 (concentration of MCP-1 P8A which allows 80% of cell migration) in the Lower Chamber (with compounds to avoid any compound gradient) diffuses through the pores of the membrane and interacts with the CCR2 receptor of cells present in the upper chamber. The tested compounds can also potentially interact with CCR2 receptor and therefore inhibit the migration of the cells from the Upper Chamber to the Lower Chamber. After a 4-hours incubation time at 37°C, 5% CO2, a quantification of the cells which have migrated is performed using the Cyquant (Invitrogen) and a fluorescent reader as a Fluostar (exc: 485nm; emm: 520 nm). Specific migration is assessed by substracting the basal migration of cells without any stimulation. Chemotaxis data were analyzed using the Genedata Screener® software.
SMILES,Ki [1],Ki [2]
"CCN1CCC2(CC1)OC(=O)C(C)=C2C(=O)N1CCN(c2cccc(C(F)(F)F)c2)CC1 [Compound 74, 8-ethyl-3-methyl-4-({4-[3-(trifluoromethyl)phenyl]piperazin-1-yl}carbonyl)-1-oxa-8-azaspiro[4.5]dec-3-en-2-one]",< 50 nM,< 50 nM
"CCN1CCC2(CC1)OC(=O)C(C)=C2C(=O)N1CCc2ccc(C(F)(F)F)cc2C1 [Compound 97, 8-ethyl-3-methyl-4-{[7-(trifluoromethyl)-3,4-dihydroisoquinolin-2(1H)-yl]carbonyl}-1-oxa-8-azaspiro[4.5]dec-3-en-2-one]",< 50 nM,< 50 nM
"CC1=C(C(=O)N2CCc3ccc(C(F)(F)F)cc3C2)C2(CCN(C3CCOCC3)CC2)OC1=O [Compound 26, 3-methyl-8-(tetrahydro-2H-pyran-4-yl)-4-{[7-(trifluoromethyl)-3,4-dihydroisoquinolin-2(1H)-yl]carbony}-1-oxa-8-azaspiro[4.5]dec-3-en-2-one]",< 50 nM,< 50 nM
"CC1=C(C(=O)N2CCc3ccc(C(F)(F)F)cc3C2)C2(CCN(C(C)C)CC2)OC1=O [Compound 62, 8-isopropyl-3-methyl-4-{[7-(trifluoromethyl)-3,4-dihydroisoquinolin-2 (1H)-yl]carbonyl}-1-oxa-8-azaspiro[4.5]dec-3-en-2-one]",< 50 nM,< 50 nM
"CC1=C(C(=O)N2COc3ccc(C(F)(F)F)cc3C2)C2(CCN(C(C)C)CC2)OC1=O [Compound 66, 8-isopropyl-3-methyl-4-{[6-(trifluoromethyl)-2H-1,3-benzoxazin-3(4H)-yl]carbonyl}-1-oxa-8-azaspiro[4.5]dec-3-en-2-one]",< 50 nM,< 50 nM
"CCN1CCC2(CC1C)OC(=O)C(C)=C2C(=O)N1CCc2ccc(C(F)(F)F)cc2C1 (stereo not shown) [Compound 79, 8-ethyl-3,7-dimethyl-4-{[7-(trifluoromethyl)-3,4-dihydroisoquinolin-2(1H)-yl]carbonyl}-1-oxa-8-azaspiro[4.5]dec-3-en-2-one]",< 50 nM,–
"CCN1CCC2(CC1)OC(=O)C(C)=C2C(=O)N1CCN(c2cccc(C(F)(F)F)c2)CC1C (stereo not shown) [Compound 84, 8-ethyl-3-methyl-4-({2-methyl-4-[3-(trifluoromethyl)phenyl]piperazin-1-yl}carbonyl)-1-oxa-8-azaspiro[4.5]dec-3-en-2-one]",< 50 nM,–
"CCN1CCC2(CC1)OC(=O)C(C)=C2C(=O)N1CCN(c2cc(OC)cc(C(F)(F)F)c2)CC1 [Compound 87, 8-ethyl-4-({4-[3-methoxy-5-(trifluoromethyl)phenyl]piperazin-1-yl}carbonyl)-3-methyl-1-oxa-8-azaspiro[4.5]dec-3-en-2-one]",< 50 nM,–
"CCN1CCC2(CC1)OC(=O)C(C)=C2C(=O)N1CCc2ccc(C#N)cc2C1 [Compound 49, 2-[(8-ethyl-3-methyl-2-oxo-1-oxa-8-azaspiro[4.5]dec-3-en-4-yl)carbonyl]-1,2,3,4-tetrahydroisoquinoline-7-carbonitrile]",100 to 500 nM,–
"CC1=C(C(=O)N2CCc3ccc(C(F)(F)F)cc3C2)C2(CCN(CCF)CC2)OC1=O [Compound 17, 8-(2-fluoroethyl)-3-methyl-4-{[7-(trifluoromethyl)-3,4-dihydroisoquinolin-2(1H)-yl]carbonyl}-1-oxa-8-azaspiro[4.5]dec-3-en-2-one]",< 50 nM,–
"CCN1CCC2(CC1)OC(=O)C(C)=C2C(=O)N1CCN(c2cc(C(F)(F)F)ccc2C)CC1 [Compound 96, 8-ethyl-3-methyl-4-({4-[2-methyl-5-(trifluoromethyl)phenyl]piperazin-1-yl}carbonyl)-1-oxa-8-azaspiro[4.5]dec-3-en-2-one]",500 to 2000 nM,–
"COC1COCCC1N1CCC2(CC1)OC(=O)C(C)=C2C(=O)N1CCc2ncc(C(F)(F)F)cc2C1 (single isomer, unassigned; (+)) [Compound 48, (+)-1,5-anhydro-3,4-dideoxy-2-O-methyl-3-(3-methyl-2-oxo-4-{[3-(trifluoromethyl)-7,8-dihydro-1,6-naphthyridin-6(5H)-yl]carbonyl}-1-oxa-8-azaspiro[4.5]dec-3-en-8-yl)-pentitol]",100 to 500 nM,–
"COc1ccccc1CCN1CCC2(CC1)OC(=O)C(C)=C2C(=O)N1CCc2ccc(C(F)(F)F)cc2C1 [Compound 65, 8-[2-(2-methoxyphenyl)ethyl]-3-methyl-4-{[7-(trifluoromethyl)-3,4-dihydroisoquinolin-2(1H)-yl]carbonyl}-1-oxa-8-azaspiro[4.5]dec-3-en-2-one]",< 50 nM,–
"CC1=C(C(=O)N2CCN(c3cccc(C(F)(F)F)c3)CC2)C2(CCN(Cc3ccccc3)CC2)OC1=O [Compound 109, 8-benzyl-3-methyl-4-({4-[3-(trifluoromethyl)phenyl]piperazin-1-yl}carbonyl)-1-oxa-8-azaspiro[4.5]dec-3-en-2-one]",100 to 500 nM,–
